# Target: human TLR7 (Homo sapiens (Human), UniProt Q9NYK1)
# Test: Test for evaluating the inhibition of the activation of human TLR7 (SEAP reporter, TLR7/NF-κB/SEAPorter HEK293 cell)
# Type: cell-based
# Conditions: R-848 200 nmol/L; for inhibitory effect against TLR7 in the test for evaluating inhibition of the activation of TLR7: SEAP activity, result in words; for IC50: SEAP reporter
# Protocol: As human TLR7 expressing cell line, HEK293 cell line was bought from IMGENEX Corporation (TLR7/NF-ηB/SEAPorter™ HEK293 cell), which is human embryonic kidney cell line and stably expresses full-length human TLR7 gene and secreted alkaline phosphatase (SEAP) reporter gene under the transcriptional control of an NE-ηB response element. The TLR7/NF-ηB/SEAPorter™ HEK293 cell was cultivated with DMEM containing 10% fetal bovine serum (FBS) and 10 μg/mL blasticidin S at 37° C. in the presence of 5% CO2. The TLR7/NF-ηB/SEAPorter™ HEK293 cell was seeded into 96-well microtiter plate at 5×10^4 cell/90 μL/well, and the place was cultivated at 37° C. in a CO2 incubator overnight.
# Each compound prepared in the Examples was evaluated by Test 1.
# human TLR7, sequence (Q9NYK1 27-1049): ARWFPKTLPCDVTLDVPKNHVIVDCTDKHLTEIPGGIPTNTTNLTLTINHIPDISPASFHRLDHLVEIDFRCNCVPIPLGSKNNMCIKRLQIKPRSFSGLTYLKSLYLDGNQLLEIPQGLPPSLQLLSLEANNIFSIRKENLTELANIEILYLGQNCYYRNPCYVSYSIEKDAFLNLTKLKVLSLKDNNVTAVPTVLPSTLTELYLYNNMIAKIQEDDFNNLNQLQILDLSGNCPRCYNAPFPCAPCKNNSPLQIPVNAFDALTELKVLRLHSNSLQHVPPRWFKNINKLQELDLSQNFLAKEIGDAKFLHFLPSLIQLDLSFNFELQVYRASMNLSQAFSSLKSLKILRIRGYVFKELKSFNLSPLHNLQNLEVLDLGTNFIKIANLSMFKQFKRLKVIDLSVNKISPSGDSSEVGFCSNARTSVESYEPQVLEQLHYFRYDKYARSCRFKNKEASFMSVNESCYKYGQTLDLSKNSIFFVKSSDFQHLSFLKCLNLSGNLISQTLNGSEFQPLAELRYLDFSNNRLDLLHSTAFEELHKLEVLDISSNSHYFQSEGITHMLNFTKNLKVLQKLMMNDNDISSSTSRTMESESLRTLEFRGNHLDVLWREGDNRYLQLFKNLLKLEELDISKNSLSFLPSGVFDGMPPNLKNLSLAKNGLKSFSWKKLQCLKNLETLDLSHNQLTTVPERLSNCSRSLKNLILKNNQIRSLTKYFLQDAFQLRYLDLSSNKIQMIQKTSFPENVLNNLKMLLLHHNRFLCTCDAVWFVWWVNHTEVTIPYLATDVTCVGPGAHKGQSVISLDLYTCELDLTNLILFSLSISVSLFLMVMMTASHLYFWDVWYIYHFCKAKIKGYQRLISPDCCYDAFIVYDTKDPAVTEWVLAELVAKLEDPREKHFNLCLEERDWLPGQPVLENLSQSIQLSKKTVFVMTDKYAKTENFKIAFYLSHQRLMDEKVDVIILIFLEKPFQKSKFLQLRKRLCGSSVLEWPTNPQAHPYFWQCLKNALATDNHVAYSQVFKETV
SMILES,inhibitory effect against TLR7 in the test for evaluating inhibition of the activation of TLR7,IC50
CCOc1nc(N)c2nc(-c3cncc(F)c3)n(Cc3ccc(CN4C[C@@H]5C[C@H]4CN5C4CC4)cc3)c2n1 [Example 130],potent inhibitory effect against TLR7,43 nM
"CCOc1nc(C)c2nc(-c3cncc(F)c3)n(Cc3ccc(CN4C[C@@H]5C[C@H]4CN5CC)cc3)c2n1 [Example 131, 2-ethoxy-9-(4-{[(1S,4S)-5-ethyl-2,5-diazabicyclo[2.2.1]hept-2-yl]methyl}benzyl)-8-(5-fluoropyridin-3-yl)-6-methyl-9H-purine]",potent inhibitory effect against TLR7,7 nM
"CCN1C[C@@H]2C[C@H]1CN2Cc1ccc(Cn2c(-c3cncc(F)c3)nc3c(C)nc(OC)nc32)cc1 [Example 132, 9-(4-{[(1S,4S)-5-ethyl-2,5-diazabicyclo[2.2.1]hept-2-yl]methyl}benzyl)-8-(5-fluoropyridin-3-yl)-2-methoxy-6-methyl-9H-purine]",potent inhibitory effect against TLR7,19 nM
"CCCN1C[C@@H]2C[C@H]1CN2Cc1ccc(Cn2c(-c3cncc(F)c3)nc3c(C)nc(OC)nc32)cc1 [Example 133, 8-(5-fluoropyridin-3-yl)-2-methoxy-6-methyl-9-(4-{[(1S,4S)-5-propyl-2,5-diazabicyclo[2.2.1]hept-2-yl]methyl}benzyl)-9H-purine]",potent inhibitory effect against TLR7,13 nM
CCN1C[C@@H]2C[C@H]1CN2Cc1ccc(Cn2c(-c3cncc(F)c3)nc3c(N)nc(OC)nc32)cc1 [Example 134],,170 nM
CCOc1nc(N)c2nc(-c3cncc(F)c3)n(Cc3ccc(C4CCN(C5COC5)CC4)cc3)c2n1 [Example 135],potent inhibitory effect against TLR7,85 nM
CCOc1nc(N)c2nc(-c3cncc(F)c3)n(Cc3ccc4c(c3)CN(C)C4)c2n1 [Example 137],,840 nM
CCOc1nc(C)c2nc(-c3cncc(F)c3)n(Cc3ccc(C4CCN(C)C4)cc3)c2n1 (stereo not drawn) [Example 138],potent inhibitory effect against TLR7,49 nM
"CCOc1nc(N)c2nc(-c3cncc(F)c3)n(Cc3ccc(COCCN(C)C)cc3)c2n1 [Example 140, 9-(4-{[2-(Dimethylamino)ethoxy]methyl}benzyl)-2-ethoxy-8-(5-fluoropyridin-3-yl)-9H-purine-6-amine]",,120 nM
"CCCCOc1nc(C)c2nc(-c3cncc(F)c3)n(Cc3ccccc3)c2n1 [Example 141, 9-Benzyl-2-butoxy-8-(5-fluoropyridin-3-yl)-6-methyl-9H-purine]",,3300 nM
CCCCOc1nc(C)c2nc(-c3cncc(OC)c3)n(Cc3ccccc3)c2n1 [Example 142],,6600 nM
"CCOc1nc(N)c2nc(-c3cncc(F)c3)n(Cc3ccc(C(=O)N4CCN(C)CC4)cc3)c2n1 [Example 143, (4-{[6-Amino-2-ethoxy-8-(5-fluoropyridin-3-yl)-9H-purin-9-yl]methyl}phenyl) (4-methylpiperazin-1-yl)methanone]",,1570 nM
CCOc1nc(N)c2nc(-c3cncc(F)c3)n(Cc3ccc(C(=O)N4CCC(C)CC4)cc3)c2n1 [Example 144],,2600 nM
CCOc1nc(N)c2nc(-c3cncc(F)c3)n(Cc3ccc(C(=O)NCCN(C)C)cc3)c2n1 [Example 145],,2100 nM
CCOc1nc(N)c2nc(-c3cncc(F)c3)n(Cc3ccc(C(=O)NCCN4CCCC4)cc3)c2n1 [Example 146],,1700 nM
"COc1nc(C)c2nc(-c3cncc(F)c3)n(Cc3ccc(C4CN5CCC4CC5)cc3)c2n1 (stereo not drawn) [Example 165, 9-[4-(1-Azabicyclo[2.2.2]oct-3-yl)benzyl]-8-(5-fluoropyridin-3-yl)-2-methoxy-6-methyl-9H-purine]",potent inhibitory effect against TLR7,16 nM
CCOc1nc(C)c2nc(-c3cncc(F)c3)n(Cc3cnn(C4CN5CCC4CC5)c3)c2n1 (stereo not drawn) [Example 167],,110 nM
CCOc1nc(C)c2nc(-c3cncc(F)c3)n(Cc3ccc(C4CN5CCC4CC5)cc3F)c2n1 (stereo not drawn) [Example 172],potent inhibitory effect against TLR7,3 nM
"CCOc1nc(N)c2nc(-c3cncc(F)c3)n(Cc3ccc([C@@H]4CN5CCC4CC5)cc3)c2n1 [Example 175, 9-{4-[(3R)-1-Azabicyclo[2.2.2]oct-3-yl]benzyl}-2-ethoxy-8-(5-fluoropyridin-3-yl)-9H-purine-6-amine]",,94 nM
"CCOc1nc(N)c2nc(-c3cncc(F)c3)n(Cc3ccc([C@H]4CN5CCC4CC5)cc3)c2n1 [Example 176, 9-{4-[(3S)-1-azabicyclo[2.2.2]oct-3-yl]benzyl}-2-ethoxy-8-(5-fluoropyridin-3-yl)-9H-purine-6-amine]",potent inhibitory effect against TLR7,11 nM
"COc1nc(C)c2nc(-c3cncc(F)c3)n(Cc3ccc([C@@H]4CN5CCC4CC5)cc3)c2n1 [Example 177, 9-{4-[(3R)-1-Azabicyclo[2.2.2]oct-3-yl]benzyl}-8-(5-fluoropyridin-3-yl)-2-methoxy-6-methyl-9H-purine]",,10 nM

# The remaining lines, values ahead:
inhibitory effect against TLR7 in the test for evaluating inhibition of the activation of TLR7,IC50,SMILES
,3500 nM,CCCCOc1nc(N)c2nc(-c3cncc(F)c3)n(Cc3cccc(C(=O)N4CCN(C)CC4)c3)c2n1 [Example 147]
potent inhibitory effect against TLR7,16 nM,"CCOc1nc(N)c2nc(-c3cncc(F)c3)n(Cc3ccc(C4CCN(C(=O)CN(C)C)CC4)cc3)c2n1 [Example 148, 1-[4-(4-{[6-Amino-2-ethoxy-8-(5-fluoropyridin-3-yl)-9H-purin-9-yl]methyl}phenyl)piperidin-1-yl]-2-(dimethylamino)ethanone]"
,500 nM,COc1nc(N)c2nc(-c3cncc(F)c3)n(Cc3ccc(CN(C)C)cc3)c2n1 [Example 150]
,16600 nM,CN(C)Cc1ccc(Cn2c(-c3cncc(F)c3)nc3c(N)nc(OC4CCOCC4)nc32)cc1 [Example 151]
,2900 nM,CN(C)Cc1ccc(Cn2c(-c3cncc(F)c3)nc3c(N)nc(OCC4CCOCC4)nc32)cc1 [Example 152]
,5800 nM,CN(C)Cc1ccc(Cn2c(-c3cncc(F)c3)nc3c(N)nc(N4CCC4)nc32)cc1 [Example 153]
,13600 nM,CCCCNc1nc(N)c2nc(-c3cncc(F)c3)n(Cc3ccc(CN(C)C)cc3)c2n1 [Example 154]
,8100 nM,CCCCN(C)c1nc(N)c2nc(-c3cncc(F)c3)n(Cc3ccc(CN(C)C)cc3)c2n1 [Example 155]
,5000 nM,"Cc1nc(N)c2nc(-c3cncc(F)c3)n(Cc3ccc(CN(C)C)cc3)c2n1 [Example 156, 9-{4-[(Dimethylamino)methyl]benzyl}-8-(5-fluoropyridin-3-yl)-2-methyl-9H-purine-6-amine]"
,8900 nM,CCc1nc(N)c2nc(-c3cncc(F)c3)n(Cc3ccc(CN(C)C)cc3)c2n1 [Example 157]
,13700 nM,"COCC(C)Oc1nc(N)c2nc(-c3cncc(F)c3)n(Cc3ccc(CN(C)C)cc3)c2n1 (stereo not drawn) [Example 158, 9-{4-[(Dimethylamino)methyl]benzyl}-8-(5-fluoropyridin-3-yl)-2-[(1-methoxypropan-2-yl)oxy]-9H-purine-6-amine]"
,930 nM,CN(C)Cc1ccc(Cn2c(-c3cncc(F)c3)nc3c(N)nc(OCC(F)F)nc32)cc1 [Example 159]
,1300 nM,CN(C)Cc1ccc(Cn2c(-c3cncc(F)c3)nc3c(N)nc(OCC4CC4)nc32)cc1 [Example 160]
potent inhibitory effect against TLR7,28 nM,COc1nc(N)c2nc(-c3cncc(F)c3)n(Cc3ccc(CN4C[C@@H]5C[C@H]4CN5C)cc3)c2n1 [Example 161]
,210 nM,CCCOc1nc(N)c2nc(-c3cncc(F)c3)n(Cc3ccc(CN(C)C)cc3)c2n1 [Example 162]
,170 nM,CCOc1nc(C)c2nc(-c3cncc(F)c3)n(Cc3cnn(C4CCN(C)C4)c3)c2n1 (stereo not drawn) [Example 164]
potent inhibitory effect against TLR7,50 nM,CCOc1nc(C)c2nc(-c3cncc(F)c3)n(Cc3cnn(C4CCN(C)CC4)c3)c2n1 [Example 166]
,1400 nM,CCOc1nc(C)c2nc(-c3cncc(F)c3)n(Cc3cccnc3)c2n1 [Example 168]
,82 nM,CCOc1nc(C)c2nc(-c3cncc(F)c3)n(Cc3ccc(C4CCCN4C)cc3)c2n1 (stereo not drawn) [Example 170]
potent inhibitory effect against TLR7,26 nM,"CCOc1nc(C)c2nc(-c3cncc(F)c3)n(Cc3ccc(CN4CCN5CC[C@@H]4C5)cc3)c2n1 [Example 174, 9-{4-[(5R)-1,4-diazabicyclo[3.2.1]oct-4-ylmethyl]benzyl}-2-ethoxy-8-(5-fluoropyridin-3-yl)-6-methyl-9H-purine]"
,16200 nM,CCCCOc1nc(N)c2nc(-c3ccc(N(C)C)cc3)n(Cc3ccccc3)c2n1 [Example 179]
,19700 nM,COCCOc1nc(N)c2nc(-c3cncc(S(C)(=O)=O)c3)n(Cc3ccc(CN(C)C)cc3)c2n1 [Example 181]
,2020 nM,CCOc1nc(N)c2nc(-c3cncc(F)c3)n(Cc3cccc(C#N)c3)c2n1 [Example 237]
,357 nM,CCOc1nc(N)c2nc(-c3cncc(F)c3)n(Cc3cc(F)ccc3F)c2n1 [Example 240]
,2660 nM,COc1nc(C)c2nc(-c3cncc(F)c3)n(Cc3cnn(C)c3)c2n1 [Example 243]
,445 nM,CCOc1nc(C)c2nc(-c3cncc(F)c3)n(Cc3cnn(CCN(C)C)c3)c2n1 [Example 244]

# — patent US10703755B2, “Substituted purine derivative” (SUMITOMO DAINIPPON PHARMA CO., LTD., priority 2016, dated 2020)
